Experimental data as given in patent US6642266B2, “EP4 receptor selective agonists in the treatment of osteoporosis” (Pfizer Inc., priority 1999, dated 2003).

Columns and labels:
EP4 receptor = target: T1, EP4 receptor (Rattus norvegicus, UniProt P43114); test: Assay for binding to prostaglandin E2 receptors (3H-PGE2 displacement), EP4
T1 construct: expressed in transfected cells
Description: (§1) Membrane Preparation: All operations are performed at 4° C. Transfected cells expressing prostagiandin E2 type 1 receptors (EP1), type 2 (EP2), type 3 (EP3) or type 4 (EP4) receptors are harvested and suspended to 2 million cells per ml in Buffer A [50 mM Tris-HCl (pH 7.4), 10 mM MgCl2, 1 mM EDTA, 1 mM Pefabloc peptide, (Boehringer Mannheim Corp., Indianapolis, Ind.), 10 uM Phosporamidon peptide, (Sigma, St. Louis, Mo.), 1 uM pepstatin A peptide, (Sigma, St. Louis, Mo.), 10 uM elastatinal peptide, (Sigma, St. Louis, Mo.), 100 uM antipain peptide, (Sigma, St. Louis, Mo.)]. The cells are lysed by sonification with a Branson Sonifier (Model #250, Branson Ultrasonics Corporation, Danbury, Conn.) in 2 fifteen second bursts. Unlysed cells and debris are removed by centrifugation at 100×g for 10 min. […] Pelleted membranes are resuspended to 3-10 mg of protein per ml of Buffer A, the protein concentration being determined by the method of Bradford [Bradford, M., Anal. Biochem., 72, 248 (1976)]. […]
(§2) Binding Assay: Frozen membranes prepared as above are thawed and diluted to 0.5 mg/ml (for rat EP2) or 0.3 mg/ml (for rat EP4) in Buffer A above. […] To determine the amount of ^3H-prostaglandin bound to the membranes, the dried filters are placed into plastic bags with scintillation fluid and counted in a LKB 1205 Betaplate reader (Wallac, Gaithersburg, Md.). […]

OVX rat model = test: Bone mass restoration in OVX rat model (femoral DEXA); type: in vivo; conditions: subcutaneous 30 mg/kg/day for 28 days
Description: The purpose of this study is to determine whether an EP4 receptor selective agonist, and specifically 7-(2-(3-hydroxy-4-phenyl-butyl)-5-oxo-pyrrolidin-1-yl)-heptanoic acid, can restore bone mass in OVX rat model.
Sprague-Dawley […] rats were ovariectomized (OVX) at 3.5 months of age. Ten months after OVX, the rats were treated by subcutaneous injection with vehicle or 7-(2-(3-hydroxy-4-phenyl-butyl)-5-oxo-pyrrolidin-1-yl)-heptanoic acid at 30 mg/kg/day for 28 days. The rats were autopsied. The right femur from each rat was removed at autopsy and scanned using dual energy x-ray absorptiometry (DEXA, QDR 1000/W, Hologic Inc., Waltham, Mass.) equipped with “Regional High Resolution Scan” software (Hologic Inc., Waltham, Mass.). The scan field size was 5.08×1.902 cm, resolution is 0.0254×0.0127 cm and the scan speed was 7.25 mm/second. The femoral scan images were analyzed. Bone mineral content (BMC) and bone mineral density (BMD) of whole femora (WF), distal femoral metaphysis (DFM), and femoral shaft (FS) were determined according to the method described in H. Z. Ke et al., Droloxifene, a New Estrogen Antagonist/Agonist, Prevents Bone Loss in Ovariectomized Rats. ENDOCRINOLOGY 136;2435-2441, 1995.

EP1 receptor = target: T2, EP1 receptor (Homo sapiens, UniProt P34995); test: Assay for binding to prostaglandin E2 receptors (3H-PGE2 displacement), EP1; conditions: read-out: IC50 at EP1 receptor subtype
T2 construct: expressed in transfected cells
T2 sequence (P34995 1-402): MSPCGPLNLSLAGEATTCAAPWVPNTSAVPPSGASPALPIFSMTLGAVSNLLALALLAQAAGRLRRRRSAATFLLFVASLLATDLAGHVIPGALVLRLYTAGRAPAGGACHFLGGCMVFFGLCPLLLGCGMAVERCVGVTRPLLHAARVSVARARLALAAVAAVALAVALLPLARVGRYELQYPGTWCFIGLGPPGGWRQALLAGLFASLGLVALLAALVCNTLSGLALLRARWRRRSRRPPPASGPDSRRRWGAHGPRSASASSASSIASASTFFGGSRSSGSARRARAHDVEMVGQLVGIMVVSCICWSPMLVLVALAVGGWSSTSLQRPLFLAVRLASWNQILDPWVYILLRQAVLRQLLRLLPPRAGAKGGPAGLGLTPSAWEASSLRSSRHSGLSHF
Description: as §1, §2

EP3 receptor = target: T3, EP3 receptor (Homo sapiens, UniProt P43115); test: Assay for binding to prostaglandin E2 receptors (3H-PGE2 displacement), EP3; conditions: read-out: IC50 at EP3 receptor subtype
T3 construct: expressed in transfected cells
T3 sequence (P43115 1-390): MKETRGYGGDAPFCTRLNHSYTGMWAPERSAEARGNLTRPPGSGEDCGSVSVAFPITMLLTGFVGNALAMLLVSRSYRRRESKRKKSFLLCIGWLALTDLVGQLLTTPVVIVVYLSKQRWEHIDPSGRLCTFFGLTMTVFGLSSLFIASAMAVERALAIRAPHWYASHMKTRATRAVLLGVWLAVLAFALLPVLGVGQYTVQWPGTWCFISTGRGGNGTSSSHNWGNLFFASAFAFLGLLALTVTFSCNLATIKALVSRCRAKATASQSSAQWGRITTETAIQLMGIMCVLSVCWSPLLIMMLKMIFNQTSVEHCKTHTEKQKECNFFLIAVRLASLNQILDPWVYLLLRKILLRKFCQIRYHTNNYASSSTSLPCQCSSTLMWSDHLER
Description: as §1, §2

EP2 receptor = target: T4, EP2 receptor (Rattus norvegicus, UniProt Q62928); test: Assay for binding to prostaglandin E2 receptors (3H-PGE2 displacement), EP2; conditions: read-out: IC50 at EP2 receptor subtype
T4 construct: expressed in transfected cells
Description: as §1, §2

[1] = OVX rats, compared with OVX rats treated with vehicle

T1 sequence (P43114 whole entry): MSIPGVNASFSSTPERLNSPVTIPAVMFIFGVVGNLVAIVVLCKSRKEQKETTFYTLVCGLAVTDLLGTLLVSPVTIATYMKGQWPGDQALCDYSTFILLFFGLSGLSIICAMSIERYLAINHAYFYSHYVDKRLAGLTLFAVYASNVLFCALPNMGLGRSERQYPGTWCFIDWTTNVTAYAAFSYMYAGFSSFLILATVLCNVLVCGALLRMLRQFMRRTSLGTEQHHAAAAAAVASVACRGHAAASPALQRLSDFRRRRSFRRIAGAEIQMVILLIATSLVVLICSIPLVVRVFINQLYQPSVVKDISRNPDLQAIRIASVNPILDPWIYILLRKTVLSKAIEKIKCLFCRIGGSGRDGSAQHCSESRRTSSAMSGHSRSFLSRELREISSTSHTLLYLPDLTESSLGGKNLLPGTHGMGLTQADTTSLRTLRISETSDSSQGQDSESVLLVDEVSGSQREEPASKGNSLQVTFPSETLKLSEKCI
T4 sequence (Q62928 whole entry): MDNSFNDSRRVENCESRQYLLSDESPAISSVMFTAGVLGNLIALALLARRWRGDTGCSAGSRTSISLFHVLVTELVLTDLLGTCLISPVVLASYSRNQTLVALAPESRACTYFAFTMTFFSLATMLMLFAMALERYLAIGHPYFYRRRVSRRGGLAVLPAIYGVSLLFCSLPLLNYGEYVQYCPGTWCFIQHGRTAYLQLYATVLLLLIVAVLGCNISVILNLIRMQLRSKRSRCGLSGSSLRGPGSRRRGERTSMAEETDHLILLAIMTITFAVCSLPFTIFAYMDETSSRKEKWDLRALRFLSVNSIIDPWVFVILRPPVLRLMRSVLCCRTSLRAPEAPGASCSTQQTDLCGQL

IC50 (EP4 receptor): 16 nM
IC50 (EP1 receptor): > 3.2 µM
IC50 (EP3 receptor): > 3.2 µM
IC50 (EP2 receptor): > 3.2 µM
SMILES: O=C(O)CCCCCCN1C(=O)CCC1CCC(O)Cc1ccccc1 (stereo not drawn) [7-(2-(3-hydroxy-4-phenyl-butyl)-5-oxo-pyrrolidin-1-yl)-heptanoic acid]
PGE2-like side effects (OVX rat model; OVX rats): No PGE2-like side effects were seen
distal femoral BMC increased (OVX rat model; [1]): 8%
distal femoral BMD increased (OVX rat model; [1]): 8%
femoral shaft BMC increased (OVX rat model; [1]): 20%
femoral shaft BMD increased (OVX rat model; [1]): 18%
total femoral BMC increased (OVX rat model; [1]): 17%
total femoral BMD increased (OVX rat model; [1]): 13%
bone formation and bone restoration in established osteopenic OVX rats (OVX rat model): stimulates bone formation and restores bone
